Format in all cases: cell-based
Assay [1] relates to Aspergillus fumigatus AF293. Kind of assay: MIC, RPMI medium. To be noted: for MIC: Aspergillus fumigatus, AF293, MIC banded into grades, read-out: MIC grade, A. fumigatus. The essentials:
(§1)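 Minimum inhibitory concentrations were determined in glucose-supplemented (2%) RPMI buffered to pH 7.0 with 0.135 M MOPS. Wells held 1−2×10^4 cfu/mL and compound from 50 to 0.05 mg/L, incubated 24-48 h at 35° C, with >80% growth reduction by OD 485 nm as endpoint.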

For assay [2], the system named is Aspergillus terreus AT49. Kind of assay: MIC, RPMI medium. To be noted: for MIC: Aspergillus terreus, AT49, MIC banded into grades, read-out: MIC grade, A. terreus 49. The essentials: as §1
In assay [3] the test system is Aspergillus fumigatus AF210. Kind of assay: MIC, RPMI medium. The settings on record: for MIC: Aspergillus fumigatus, AF210, MIC banded into grades, read-out: MIC grade, A. fumigatus 210. An outline of the steps: as §1
The subject of assay [4] is Candida glabrata. As to the kind of experiment: MIC, RPMI medium. To be noted: 24-48 h at 35° C., >80% growth inhibition, banded into grades; for MIC: Nakaseomyces glabratus. The essentials: as §1
For assay [5], the system named is Candida parapsilosis. Kind of assay: MIC, RPMI medium. The settings on record: 24-48 h at 35° C., >80% growth inhibition, banded into grades; for MIC: Lodderomyces parapsilosis. The essentials:
as §1

For assay [6], the system named is Candida tropicalis. As to the kind of experiment: MIC, RPMI medium. To be noted: 24-48 h at 35° C., >80% growth inhibition, banded into grades; for MIC: Candida tropicalis. The essentials:
as §1

Assay [7] relates to Aspergillus terreus AT4. Kind of assay: MIC, RPMI medium. To be noted: for MIC: Aspergillus terreus, AT4, MIC banded into grades, read-out: MIC grade, A. terreus. The essentials: as §1
Assay [8] relates to Aspergillus niger. Kind of assay: MIC, RPMI medium. To be noted: MIC banded into grades; for MIC: Aspergillus niger, read-out: MIC grade, A. niger. The essentials:
as §1

In assay [9] the test system is Aspergillus flavus. Kind of assay: MIC, RPMI medium. To be noted: MIC banded into grades; for MIC: Aspergillus flavus, read-out: MIC grade, A. flavus. The essentials: as §1
Assay [10] relates to Candida krusei. As to the kind of experiment: MIC, RPMI medium. The settings on record: 24-48 h at 35° C., >80% growth inhibition, banded into grades; for MIC: Pichia kudriavzevii. An outline of the steps: as §1
For assay [11], the system named is Candida albicans. As to the kind of experiment: MIC, RPMI medium. The settings on record: 24-48 h at 35° C., >80% growth inhibition, banded into grades; for MIC: Candida albicans. The essentials:
as §1

For assay [12], the system named is Aspergillus fumigatus AF293. As to the kind of experiment: MIC, YAG medium. To be noted: 24 h at 35° C, MIC banded into grades; for MIC: Aspergillus fumigatus, read-out: MIC grade, A. fumigatus. An outline of the steps: (§2)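 Endpoint is growth at OD 485 nm after 24 h at 35° C, with MIC defined as the lowest drug level giving >70% inhibition relative to untreated wells and recorded in mg/L. Tests ran in YAG broth with 1−2×10^4 cfu/mL spore inocula from Sabouraud-grown cultures. Drug ranges were 50-0.05 mg/L, repeated at 0.5-0.0005 mg/L when needed.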

For assay [13], the system named is Aspergillus terreus AT49. As to the kind of experiment: MIC, YAG medium. To be noted: 24 h at 35° C, MIC banded into grades; for MIC: Aspergillus terreus, read-out: MIC grade, A. terreus 49. The essentials: as §2
The test system of assay [14] is Aspergillus fumigatus AF210. Kind of assay: MIC, YAG medium. The settings on record: 24 h at 35° C, MIC banded into grades; for MIC: Aspergillus fumigatus, read-out: MIC grade, A. fumigatus 210. An outline of the steps: as §2
Assay [15] deals with Aspergillus terreus AT4. As to the kind of experiment: MIC, YAG medium. To be noted: 24 h at 35° C, MIC banded into grades; for MIC: Aspergillus terreus, read-out: MIC grade, A. terreus. An outline of the steps:
as §2

The subject of assay [16] is Aspergillus niger. Kind of assay: MIC, YAG medium. To be noted: 24 h at 35° C, MIC banded into grades; for MIC: Aspergillus niger, read-out: MIC grade, A. niger. An outline of the steps: as §2
For assay [17], the system named is Aspergillus flavus. As to the kind of experiment: MIC, YAG medium. To be noted: 24 h at 35° C, MIC banded into grades; for MIC: Aspergillus flavus, 24 h, read-out: MIC grade, A. flavus. An outline of the steps: as §2

Structures are written as SMILES. ≈ marks a conversion by molar mass, not a printed value. Bounds are passed on as bounds.

As to `Cc1cc(C)nc(N2CCN(c3ccc(NC(=O)C(=O)c4c(-c5cccs5)cc(C)n4C)cc3)CC2)c1` [Example 13, N-{4-[4-(4,6-Dimethyl-pyridin-2-yl)-piperazin-1-yl]-phenyl}-2-(1,5-dimethyl-3-thiophen-2-yl-1H-pyrrol-2-yl)-2-oxo-acetamide], the minimal inhibitory concentration (MIC) in assay [1], in assay [2], in assay [3], in [4], in assay [5] and in assay [6] was < 1 µg/mL each time. For the same molecule, the MIC in assay [7], in assay [8], in assay [9], in assay [10], in assay [11] and in [12] was < 1 µg/mL throughout. For the same molecule, the minimum inhibitory concentration (MIC) in assay [13], in [14], in assay [15], in [16] and in [17] was < 1 µg/mL each time.
Turning to `C=C(C)CN1CCN(c2ccc(NC(=O)C(=O)c3c(-c4ccccc4)cc(C)n3CCOC)c(F)c2)CC1` [Example 109, N-{2-Fluoro-4-[4-(2-methyl-allyl)-piperazin-1-yl]-phenyl}-2-[1-(2-methoxy-ethyl)-5-methyl-3-phenyl-1H-pyrrol-2-yl]-2-oxo-acetamide], the MIC in assay [1] is < 1 µg/mL; in assay [2], < 1 µg/mL; in [3], < 1 µg/mL; in assay [4], < 1 µg/mL; in assay [5] it was < 1 µg/mL; in [6], 1 to 10 µg/mL (≈ 1.93 to 19.3 µM). Further, the MIC in assay [7], in assay [8], in assay [9], in assay [10], in [11] and in assay [12] was < 1 µg/mL each time. The minimal inhibitory concentration (MIC) in assay [13], in assay [14], in assay [15], in assay [16] and in assay [17] was < 1 µg/mL throughout.
Turning to `Cc1cc(C)nc(N2CCN(c3ccc(NC(=O)C(=O)c4c(-c5ccccc5)ccn4CCN(C)C)cc3)CC2)c1` [Example 84, 2-[1-(2-Dimethylamino-ethyl)-3-phenyl-1H-pyrrol-2-yl]-N-{4-[4-(4,6-dimethyl-pyridin-2-yl)-piperazin-1-yl]-phenyl}-2-oxo-acetamide], the MIC in assay [1] was > 10 µg/mL; in assay [2] it was > 10 µg/mL; in assay [3], > 10 µg/mL; in assay [4], < 1 µg/mL; in assay [5], < 1 µg/mL; in [6] it was < 1 µg/mL. The MIC in assay [7] was > 10 µg/mL; in assay [8], > 10 µg/mL; in assay [9], > 10 µg/mL; in [10] it was < 1 µg/mL; in [11], < 1 µg/mL; in assay [12], > 10 µg/mL. Further, the MIC in [13], in assay [14], in assay [15], in assay [16] and in assay [17] was > 10 µg/mL throughout.
In the case of `COCCn1c(C)cc(-c2ccccc2)c1C(=O)C(=O)Nc1ccc(N2CCCCC2)cc1F` [Example 114, N-(2-Fluoro-4-piperidin-1-yl-phenyl)-2-[1-(2-methoxy-ethyl)-5-methyl-3-phenyl-1H-pyrrol-2-yl]-2-oxo-acetamide], the MIC in assay [1] was 1 to 10 µg/mL (≈ 2.16 to 21.6 µM); in assay [2] it was 1 to 10 µg/mL (≈ 2.16 to 21.6 µM); in assay [3], 1 to 10 µg/mL (≈ 2.16 to 21.6 µM); in [4], < 1 µg/mL; in assay [5] it was < 1 µg/mL; in assay [6] it was < 1 µg/mL. In addition, the MIC in assay [7] was 1 to 10 µg/mL (≈ 2.16 to 21.6 µM); in assay [8], < 1 µg/mL; in [9] it was 1 to 10 µg/mL (≈ 2.16 to 21.6 µM); in [10], < 1 µg/mL; in assay [11], < 1 µg/mL; in [12] it was < 1 µg/mL. Also, the minimum inhibitory concentration (MIC) in [13], in assay [14], in [15], in assay [16] and in assay [17] was < 1 µg/mL in each case.
In the case of `COC(=O)Cn1ccc(-c2ccccc2)c1C(=O)C(=O)Nc1ccc(N2CCN(c3cc(C)cc(C)n3)CC2)cc1` [Example 74, (2-{4-[4-(4,6-Dimethyl-pyridin-2-yl)-piperazin-1-yl]-phenylaminooxalyl}-3-phenylpyrrol-1-yl)-acetic acid methyl ester], the “MIC grade, A. fumigatus” value in assay [1] (MIC banded into grades) and in [12] was 3 (A grade of 3 represents an MIC of less than 1 mg/L) each time. In addition, the “MIC grade, A. terreus 49” value in [2] (MIC banded into grades) and in assay [13] was 2 (A grade of 2 represents an MIC of from 1 to 10 mg/L) throughout. Also, the “MIC grade, A. fumigatus 210” value in assay [3] (MIC banded into grades) and in assay [14] was 3 (A grade of 3 represents an MIC of less than 1 mg/L) each time. Besides, the “Candida MIC, C. glabrata” value in assay [4] is 3 (A grade of 3 represents an MIC of less than 1 mg/L). Moreover, the “Candida MIC, C. parapsilosis” value in [5] was 3 (A grade of 3 represents an MIC of less than 1 mg/L). Moreover, in assay [6], the “Candida MIC, C. tropicalis” value is given as 3 (A grade of 3 represents an MIC of less than 1 mg/L). In addition, the “MIC grade, A. terreus” value in [7] (MIC banded into grades) and in assay [15] was 2 (A grade of 2 represents an MIC of from 1 to 10 mg/L) each time. The “MIC grade, A. niger” value in assay [8] and in assay [16] was 3 (A grade of 3 represents an MIC of less than 1 mg/L) each time. For the same molecule, the “MIC grade, A. flavus” value in [9] and in assay [17] was 1 (a grade of 1 represents an MIC of greater than 10 mg/L) each time. Also, the “Candida MIC, C. krusei” value in assay [10] is given as 2 (A grade of 2 represents an MIC of from 1 to 10 mg/L). The “Candida MIC, C. albicans” value in assay [11] is reported as 2 (A grade of 2 represents an MIC of from 1 to 10 mg/L).

Usually MIC stands for the lowest concentration found to suppress growth.

Source of the values: patent US8993574B2, “Pyrrole antifungal agents” (F2G Ltd, priority 2008, dated 2015).
